One assay concerns LNCaP cells. Kind of assay: Cell viability (MTS) assay, LNCaP. The format is cell-based, human. As to conditions: 0.1 nM R1881. As for the experimental part:
1. Cell Culture: LNCaP and PC3 human prostate cancer cells were obtained from American Type Culture Collection (ATCC, Manassas, Va.) and grown in RPMI 1640 medium supplemented with 5% fetal bovine serum (FBS) (Invitrogen). […]. All cells were maintained at 37° C. in 5% CO2.
7. Cell viability assay: The PC3, LNCaP, and MDV3100-resistant cells were plated at 3,000 cells per well in RPMI 1640 containing 5% charcoal stripped serum (CSS) in a 96-well plate, treated with 0.1 nM R1881 and compounds (0-25 μM) for 96 hrs.

The next assay concerns the target T1, AR-V7 (Homo sapiens, UniProt P10275).
T1 construct: expressed in transfected cells; host or cells: PC3
The experiment in a line: ARR3tk-luciferase reporter assay in PC3 cells, splice variant AR-V7. Format: cell-based. An excerpt: Full-length human AR (hARWT) or splice variant (AR-V7) was encoded on a pcDNA3.1 expression plasmid.
On the technique in general: Reporter assays use an easily measured gene product as a stand-in for the process of interest.

In another assay the test system is PSA. Kind of assay: PSA measurements, LNCaP cells, 1 nM R1881, 2 days. The format is cell-based, human. As for the experimental part: Following the incubation period, 150 μl of the media was taken from each well, and PSA levels were quantified using a Cobas e411 analyzer (Roche Applied Science™) according to the manufacturer's instructions. The same instrument was used to analyze serum PSA from mice during the in vivo analysis.

The target of another assay is T2, AR-DBD+hinge / ARE dsDNA (Homo sapiens, UniProt P10275).
T2 sequence (P10275 558-689): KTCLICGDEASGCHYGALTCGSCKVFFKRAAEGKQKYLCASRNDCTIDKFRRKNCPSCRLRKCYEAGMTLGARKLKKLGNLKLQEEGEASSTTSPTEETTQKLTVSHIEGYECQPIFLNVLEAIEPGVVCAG
Kind of assay: EMSA (gel shift) assay. The format is biochemical. Set-up: His6 (N); made in house; host or cells: E. coli BL21 (DE3). As for the experimental part: The plasmid encoding the AR-DBD+hinge was transformed into BL21 (DE3). BL21 cells designated for expression of biotin-labeled AR-DBD+hinge were co-transformed with the Pan4 AR-DBD+hinge (ampicillin selection) and biotin ligase expression vectors (pBir-Acm, chloramphenicol selection). Single colonies were grown in 2 liters of LB media supplemented with 50 μg/ml ampicillin and 35 μg/ml chloramphenicol (where appropriate) to A600 nm=0.6 before induction with 0.1 mM isopropyl β-D-1-thiogalactopyranoside for 3 h at 37° C. Cultures expressing the AR-DBD with the biotinylation sequence were simultaneously supplemented with 0.150 mM biotin during the induction step. Cell pellets were resuspended in ˜20 ml of 50 mM Tris-HCl, pH 8.0, 300 mM NaCl, 5% glycerol (Buffer A) supplemented with 10 mM imidazole and incubated with 0.1 mg/ml chicken egg white lysozyme (Sigma™) and 0.1 mM PMSF protease inhibitor for 30 min on ice. Cell lysis was achieved by sonication, followed by centrifugation at 13,000×g for 30 min at 4° C. The supernatant was rotated with 2 ml of nickel-agarose beads (GE Healthcare™) for 1 h at 4° C. and then directly loaded onto a Poly-Prep 10-ml gravity chromatography column (Bio-Rad™). Washing was performed with 2×4 ml of Buffer A supplemented with 20 mM imidazole. Pure proteins were eluted in 500-μl fractions with 2 ml of Buffer A containing 250 mM imidazole. […]
(In general: Mobility shift assays separate free from complexed probe on a gel.)

Another assay addresses T3, androgen receptor (AR) (Homo sapiens, UniProt P10275, T878A).
T3 sequence (P10275 1-920 T878A): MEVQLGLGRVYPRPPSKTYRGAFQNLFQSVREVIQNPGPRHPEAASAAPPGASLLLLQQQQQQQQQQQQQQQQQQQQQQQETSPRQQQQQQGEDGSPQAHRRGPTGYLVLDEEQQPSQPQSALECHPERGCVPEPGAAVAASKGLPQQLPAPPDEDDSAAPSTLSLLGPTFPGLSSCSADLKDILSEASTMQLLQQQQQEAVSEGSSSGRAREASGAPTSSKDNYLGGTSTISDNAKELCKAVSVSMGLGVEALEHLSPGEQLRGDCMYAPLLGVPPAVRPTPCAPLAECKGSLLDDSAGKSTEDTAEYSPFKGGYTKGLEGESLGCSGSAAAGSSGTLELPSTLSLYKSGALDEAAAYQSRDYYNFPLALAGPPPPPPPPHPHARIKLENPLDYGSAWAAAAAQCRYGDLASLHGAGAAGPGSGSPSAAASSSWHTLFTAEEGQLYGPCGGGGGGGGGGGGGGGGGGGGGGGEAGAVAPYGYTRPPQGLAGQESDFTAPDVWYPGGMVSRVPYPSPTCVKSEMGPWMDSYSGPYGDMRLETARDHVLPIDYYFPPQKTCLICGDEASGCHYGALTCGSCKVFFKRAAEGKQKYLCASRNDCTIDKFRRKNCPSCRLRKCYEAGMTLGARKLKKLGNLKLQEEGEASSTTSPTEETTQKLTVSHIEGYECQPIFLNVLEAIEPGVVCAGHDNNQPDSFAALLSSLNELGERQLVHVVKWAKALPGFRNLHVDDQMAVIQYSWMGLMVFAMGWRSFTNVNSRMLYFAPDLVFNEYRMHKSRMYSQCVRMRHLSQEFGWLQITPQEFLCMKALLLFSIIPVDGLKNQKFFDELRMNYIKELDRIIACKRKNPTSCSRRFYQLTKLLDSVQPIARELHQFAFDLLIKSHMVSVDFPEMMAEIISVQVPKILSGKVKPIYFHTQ
The experiment in a line: eGFP cellular AR transcription assay (LNCaP eGFP cells, LN-ARR2PB-eGFP).

The mark [1] stands for this setting: eGFP IC50, LNCaP eGFP cells, 0.1 nM R1881.

Entries after “also recorded” stand apart in the source; their conditions may differ. Read-outs that look alike come from different tables or passages of the source.

T1 sequence (P10275 1-644 isoform P10275-3): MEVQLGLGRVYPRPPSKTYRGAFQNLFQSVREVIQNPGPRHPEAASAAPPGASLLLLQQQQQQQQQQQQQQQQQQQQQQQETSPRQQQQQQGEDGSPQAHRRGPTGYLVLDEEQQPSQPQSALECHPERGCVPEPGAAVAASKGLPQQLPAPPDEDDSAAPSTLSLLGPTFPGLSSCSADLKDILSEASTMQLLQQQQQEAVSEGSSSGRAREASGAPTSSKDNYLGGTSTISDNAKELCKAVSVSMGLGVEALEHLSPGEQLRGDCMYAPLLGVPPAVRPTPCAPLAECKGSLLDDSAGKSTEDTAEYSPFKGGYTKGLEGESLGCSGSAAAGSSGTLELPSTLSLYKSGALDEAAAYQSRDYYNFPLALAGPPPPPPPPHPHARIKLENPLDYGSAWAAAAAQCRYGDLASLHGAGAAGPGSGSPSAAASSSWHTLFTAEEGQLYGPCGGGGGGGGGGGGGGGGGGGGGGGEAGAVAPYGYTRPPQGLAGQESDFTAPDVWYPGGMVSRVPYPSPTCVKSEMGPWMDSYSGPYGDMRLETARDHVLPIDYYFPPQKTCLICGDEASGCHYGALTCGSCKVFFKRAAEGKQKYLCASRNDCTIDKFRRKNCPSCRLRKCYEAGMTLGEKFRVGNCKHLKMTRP

The inhibition is the relative decrease from the control value, in per cent. The IC50 is the concentration needed to halve the response being measured. Low readings indicate greater potency in that assay, high ones weaker potency in that assay. On to `c1ccc(-c2csc(N3CCOCC3)n2)cc1` [Compound 14228, 4-(4-phenylthiazol-2-yl)morpholine], for which, in the assay with LNCaP cells, the “inhibition of cell growth, LNCaP” value is reported as “strongly inhibits”. Moreover, on AR-V7, the “inhibition of AR-V7 transcriptional activity” value was “reduced with increasing concentrations; also recorded: inhibit the transcription of AR-V7 in a concentration-dependent manner”. For the same compound, in the assay with PSA, the “IC50 secreted PSA” value is recorded as “sub-micromolar”. Further, the “protein-DNA complex formation (gel shift)” value on AR-DBD+hinge / ARE dsDNA was “could not prevent protein-DNA complex formation”. Further, the inhibition at 3 µM at androgen receptor (AR) (LNCaP, read-out: % Inhibition (3 μM)) was 110%. The IC50 was determined as 0.33 µM against androgen receptor (AR) (eGFP IC50 (μM), Series 1) and 0.274 µM against androgen receptor (AR) (setting [1]).
`Brc1ncn(-c2csc(N3CCOCC3)n2)c1Br` [Compound 14449]: the “inhibition of cell growth, LNCaP” value with LNCaP cells is “concentration-dependent inhibition of the cell growth”. The “inhibition of AR-V7 transcriptional activity” value against AR-V7 (PC3 cells, no R1881) is given as “reduced with increasing concentrations; also recorded: inhibit the transcription of AR-V7 in a concentration-dependent manner”. In addition, the “IC50 secreted PSA” value in the assay with PSA is “sub-micromolar”. Further, at AR-DBD+hinge / ARE dsDNA, the “protein-DNA complex formation (gel shift)” value is given as “could not prevent protein-DNA complex formation”. Besides, at androgen receptor (AR), the “fold improved activities compared to compound 6 (14228)” value worked out at 2 fold. Besides, the IC50 against androgen receptor (AR) (eGFP IC50 (μM), Series 1) is 0.1 µM; against androgen receptor (AR) (setting [1]) it was 0.12 ± 0.01 µM.

(Values after patent publication US10011573B2, “Human androgen receptor DNA-binding domain (DBD) compounds as therapeutics and methods for their use” (The University of British Columbia, priority 2014, dated 2018).)
